In patent US20050261298A1, “Methods of treating conditions associated with an Edg-7 receptor” (priority 2002, published 2005):

Key:
Edg-3 = biological target: T1, Edg-3 (Homo sapiens, UniProt Q99500); test: Calcium mobilization assay (FLIPR), inhibition of S1P-stimulated calcium increase; assay type: cell-based; conditions: HTC cells expressing Edg-3
T1 construct: expressed in transfected cells; host or cells: HTC rat hepatoma cells

Edg-6 = biological target: T2, Edg-6 (Homo sapiens, UniProt O95977); test: as above; assay type: cell-based; conditions: HTC cells expressing Edg-6
T2 construct: expressed in transfected cells; host or cells: HTC rat hepatoma cells
T2 sequence (O95977 1-384): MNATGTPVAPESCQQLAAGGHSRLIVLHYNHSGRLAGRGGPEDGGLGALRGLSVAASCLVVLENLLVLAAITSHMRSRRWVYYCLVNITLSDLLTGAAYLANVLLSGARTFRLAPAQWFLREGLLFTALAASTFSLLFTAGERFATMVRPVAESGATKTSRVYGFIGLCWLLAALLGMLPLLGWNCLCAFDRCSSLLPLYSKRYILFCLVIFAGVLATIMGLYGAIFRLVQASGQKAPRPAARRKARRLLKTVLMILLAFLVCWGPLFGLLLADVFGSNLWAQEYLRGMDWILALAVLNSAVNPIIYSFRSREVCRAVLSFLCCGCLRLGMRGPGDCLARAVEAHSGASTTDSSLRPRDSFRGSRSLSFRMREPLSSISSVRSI

human Edg 7 receptors = biological target: T3, human Edg 7 receptors (Homo sapiens, UniProt Q9UBY5); test: Calcium mobilization assay (FLIPR), inhibition of LPA response; assay type: cell-based
T3 construct: expressed in transfected cells
T3 sequence (Q9UBY5 1-353): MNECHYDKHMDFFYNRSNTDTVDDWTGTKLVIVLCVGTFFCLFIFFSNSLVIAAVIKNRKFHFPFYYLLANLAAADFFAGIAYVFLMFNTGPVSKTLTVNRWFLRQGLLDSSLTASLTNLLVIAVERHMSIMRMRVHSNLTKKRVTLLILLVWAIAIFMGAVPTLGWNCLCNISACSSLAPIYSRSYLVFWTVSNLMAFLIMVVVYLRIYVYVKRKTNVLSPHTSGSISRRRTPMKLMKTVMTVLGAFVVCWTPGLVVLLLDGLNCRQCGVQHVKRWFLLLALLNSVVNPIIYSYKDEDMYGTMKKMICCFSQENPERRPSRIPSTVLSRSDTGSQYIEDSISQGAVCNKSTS
Experimental: The compounds were tested in HTC cells expressing human Edg 7 receptors. […] The compounds are tested in this recombinant system first, and subsequently tested in cell lines expressing Edg-7 (in addition to other Edg receptors).
The radioligand binding assays were conducted as described in Section 6.15 (Example 15).
LPA receptors such as Edg-7, couple to calcium effector pathways, and result in increases in intracellular calcium following receptor activation (An, 1998, J. Cell. Biochem Supp. 30-31:147-157). This biological response lends itself to a very efficient, high-throughput screen using a Fluorescence Imaging Plate Reader (FLIPR; Molecular Devices, Sunnyvale, Calif.). The FLIPR system is a real-time, cell-based assay system with continuous fluorescence detection using a cooled CCD camera. The FLIPR system was used to developing an Edg-7 receptor screen. Rat hepatoma cells stably expressing Edg-7 receptor were plated on 384-well plates and loaded with a calcium dye loading kit (Molecular Devices, Sunnyvale, Calif.) for 1 hour at room temperature. Cells were then placed on the FLIPR^384 (Molecular Devices, Sunnyvale, Calif.) and excited by an argon laser at […]. The data for the entire 384-well plate was updated every second. An integrated robotic pipettor allowed for simultaneous compound addition into each individual well in the plate

Edg-1 = biological target: T4, Edg-1 (Homo sapiens, UniProt P21453); test: Calcium mobilization assay (FLIPR), inhibition of S1P-stimulated calcium increase; assay type: cell-based; conditions: HTC cells expressing Edg-1
T4 construct: expressed in transfected cells; host or cells: HTC rat hepatoma cells

Adrenergic α2 = test: Radioligand binding assay, 3H Rauwolscine; design: species or system Wistar rat; conditions: significance criteria ≧50% of max stimulation or inhibition
Experimental: In order to test the selectivity of compounds, various enzyme assays as well as radioligand binding assays were performed using numerous non-Edg receptor targets as listed below.
A radioligand binding assay was performed using adrenergic α1 according to the method of Greengrass and Bremner 1979, Eur. J. Pharmacol. 55:323-326. A radioligand binding assay was performed using adrenergic α2 according to the method of Boyajian and Leslie, 1987, J. Pharmacol. Exp. Ther. 241:1092-1098. A radioligand binding assay was performed using adrenergic β according to the method of Feve et al., 1994, Proc. Natl. Acad. Sci. USA 91:5677-5681. A radioligand binding assay was performed using angiotensin AT2 according to the method of Whitebread et al., 1991, Biochem. Biophys. Res. Comm. 181:1365-1371. A radioligand binding assay was performed using calcium channel Type L, dihydropyridine according to the method of Ehlert et al., 1982, Life Sci. 30:2191-2202. A radioligand binding assay was performed using dopamine D2L according to the method of Bunzo et al., 1988, Nature 336:783-787. A radioligand binding assay was performed using endothelin ETA according to the method of Mihara et al., 1994, J. Pharmacol. Exp Ther. 268:1122-1127. A radioligand binding assay was performed using histamine H1 Central according to the method of Hill et al., 1978, J. Neurochem. 31:997-1004. […]

[1] = concentrations as high as 20 µM

T4 sequence (P21453 whole entry): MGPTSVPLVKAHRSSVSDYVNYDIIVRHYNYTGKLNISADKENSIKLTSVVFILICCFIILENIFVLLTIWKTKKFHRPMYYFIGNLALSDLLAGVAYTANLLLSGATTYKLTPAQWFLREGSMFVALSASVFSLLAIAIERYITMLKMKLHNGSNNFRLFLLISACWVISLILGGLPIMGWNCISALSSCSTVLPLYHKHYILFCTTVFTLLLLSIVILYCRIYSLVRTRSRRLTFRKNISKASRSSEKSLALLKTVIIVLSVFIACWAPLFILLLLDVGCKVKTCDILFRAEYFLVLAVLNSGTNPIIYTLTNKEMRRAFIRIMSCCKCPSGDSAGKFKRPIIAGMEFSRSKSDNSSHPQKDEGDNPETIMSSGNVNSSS
T1 sequence (Q99500 whole entry): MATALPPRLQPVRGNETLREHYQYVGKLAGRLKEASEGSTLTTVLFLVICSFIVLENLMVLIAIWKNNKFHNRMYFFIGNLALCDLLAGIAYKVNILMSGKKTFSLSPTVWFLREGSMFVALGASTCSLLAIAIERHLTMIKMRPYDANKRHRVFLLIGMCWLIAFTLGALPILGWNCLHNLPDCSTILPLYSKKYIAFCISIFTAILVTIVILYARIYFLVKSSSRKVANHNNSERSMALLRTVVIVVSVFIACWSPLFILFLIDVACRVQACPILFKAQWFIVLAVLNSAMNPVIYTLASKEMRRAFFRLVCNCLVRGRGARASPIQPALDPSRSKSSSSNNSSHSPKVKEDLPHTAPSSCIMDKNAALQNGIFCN

Structure (SMILES): CCOC(=O)c1c(NC(=O)NS(=O)(=O)c2ccccc2Cl)sc2c1CCCC2 [Compound 101]
- IC50 (Edg-3): > 20 µM
- inhibition of S1P-stimulated calcium increases, Edg-3 (Edg-3; [1]): did not inhibit
- IC50 (Edg-6): > 20 µM
- inhibition of S1P-stimulated calcium increases, Edg-6 (Edg-6; [1]): did not inhibit
- selective inhibition of the Edg-7 receptor (FIG. 1, FIG. 2) (human Edg 7 receptors; HTC cells expressing Edg-7): specifically inhibit
- IC50 (human Edg 7 receptors; HTC cells expressing human Edg 7): 1.59 µM
- Fold Selectivity (human Edg 7 receptors; inhibitory selectivity for Edg-7 relative to other Edg receptors): >12.6 Fold
- IC50 (Edg-1): > 20 µM
- inhibition of S1P-stimulated calcium increases, Edg-1 (Edg-1; [1]): did not inhibit
- melting point: 222 to 225 °C
- activity in radioligand binding assay, Adrenergic Alpha 2, non-selective (Adrenergic α2): no significant activity
